From publication PMC7144563 (Molecules, 2020) come the findings set out here.

The procedure of the data set: Cellulose membrane was properly treated and mounted in the Franz diffusion cells (diffusion area 4.9 cm^2, compartment volume 20 mL). The acceptor compartment was filled with PBS pH 7.4 and the donor compartment was filled with 1 mL of the formulation described above (100 μg/mL of the compounds). Permeation studies were conducted under constant stirring (90 rpm) at 37 °C. Samples of 0.5 mL were withdrawn from the acceptor compartment at predetermined time intervals (30 min, 1 h, 2 h, 4 h, 6 h, 8 h) and replaced with fresh and preheated PBS. Experiments were repeated in triplicates for each compound and blank experiments containing only the medium were also performed. The samples were analyzed by HPLC without any previous pretreatment.
Steady state flux (Jss) was calculated from the slope of the linear section of the plot of the amount of permeated compound per unit area (μg/cm^2) against to time. The apparent permeability coefficient (Papp) was calculated using Equation (3), where Cd is the initial concentration of the drug in the donor compartment and Jss is the steady state flux. (3) Papp=Jss/Cd

Regarding `C[C@]12CCC(=O)C[C@@H]1CC[C@@H]1[C@@H]2CC[C@]2(C)[C@@H](O)CC[C@@H]12` [COMP 3, Androstanolone], under “during the first 4 h (2 h and 4 h) of the in vitro permeability study, considered outlier”, the “Papp values compared to the rest of the tested steroids” value is on record as “significantly higher”.

Regarding `C[C@]12C=CC(=O)C=C1CC[C@@H]1[C@@H]2C(=O)C[C@@]2(C)[C@H]1CC[C@]2(O)C(=O)CO` [COMP 27, Prednisone], the “apparent permeability coefficient (Papp)” value (pH 7.4) is on record as “highest”.
